Consider three compounds from patent publication US20020137704A1, “Methods of inhibiting host-cell mediated viral replication” (priority 2000, published 2002).

Series [1] has as its system HIV-2 LTR. As to the kind of experiment: HIV-2 enhancer CAT reporter assay in transfected U937 cells. The class given is cell-based, Human. How it is done:
Cell Culture. Human U937 monocytic cells were maintained in RPMI 1640 medium containing 10% fetal bovine serum (GibcoBRL), penicillin (50 units/ml), streptomycin (50 μg/ml), and L-glutamine (2 mM).
Phosphatase Inhibition. […]
Transfections. 5 μg of CAT reporter construct, pCMV5 PP2Ac, and the empty pCMV5 vector were combined to yield 25 μg total DNA. U937 undergoing logarithmic growth were harvested at 5×10^5 cells/ml and resuspended at 25×10^6 cells/ml in RPMI 1640 media. 10^7 cells (0.4 ml) were aliquoted to 0.4 cm electroporation cuvettes (Invitrogen) and incubated with the appropriate DNA mixture for 5 min at room temperature. The cells were then electroporated using Invitrogen's Electroporator II at a setting of 330 V, 1000 μF, and infinite resistance with an input voltage of approximately 325 V. Following electroporation, the cells from each cotransfection were evenly split ([…]) and placed in separate tissue culture plates in 5 ml of RPMI1640 media+10% FBS. After a period of 12-16 hrs, one group of cells was left untreated while the other received 32 nM TPA for 24 hrs. The cells were then harvested, washed with PBS, and lysed in 0.25 M Tris-HCl (pH 7.5). Protein levels of the lysates were determined by BioRad's colorimetric protein assay (BioRad).
Chloramphenicol Acetyl Transferase (CAT) Assay. For CAT assays, 5-30 μl of cell lysate was combined with 20 μl of 100 mM Tris-HCl (pH 7.5). The final volume was increased to 50 μl with lysis buffer, if necessary, and the mixture incubated for 15 min at 65° C. to inactivate endogenous acetyltransferases. The lysates were then transferred to 7 ml scintillation vials and 200 μl CAT reaction mixture (125 mM Tris-HCl, 1.25 mM chloramphenicol, 0.1 μCi ^3H-acetyl CoA) added. Five ml of Econofluor (Fisher Scientific) scintillation fluid was overlaid and the reaction incubated for 15-90 min before counting. Background and total counts were determined by mixing 200 μl CAT reaction mixture with 5 ml of Econfluor or Scintiverse (Fisher Scientific) respectively. CAT activity was background subtracted and normalized for total amount of protein used.
To test the possibility that PP2A is involved in the activation of the HIV-2 LTR and that PP2A may act on the HIV-2 LTR through the pets site, U937 cells were transfected with an HIV-2 enhancer CAT reporter alone or with pCMV5 PP2Ac, a plasmid encoding the catalytic domain of PP2A. After transfection, cells from each condition were split into an untreated control sample, to assess the baseline effects of PP2A, or a sample that received 32 nM 12-O-tetradecanoyl phorbol-13-acetate (TPA) for 24 hrs. […]

The subject of series [2] is U1 cells. The series can be described thus: Cellular viability of U1 cells treated with FST. Type of series: cell-based. As for the experimental part: The cellular viability was >100% for 10 μM FST compared to no treatment and 76.3% for 10 μM FST and PMA compared with PMA alone.
The subject of series [3] is HIV-1. To be noted: U1 cells; for inhibition of PMA-stimulated HIV-1 replication: RT assay.
Series [4] concerns HIV-1 LTR. Particulars: literature reports; cited from earlier work.

SMILES strings stand for the structures. A value given as a limit tells only on which side of the number the result lay.

With `CCCCCCCCCCCCCC(=O)O[C@@H]1[C@@H](C)[C@@]2(O)[C@@H](C=C(CO)C[C@]3(O)C(=O)C(C)=C[C@@H]23)[C@@H]2C(C)(C)[C@]12OC(C)=O` [TPA, 12-O-tetradecanoyl phorbol-13-acetate], the “increase in CAT activity above baseline” value in series [1] (32 nM TPA, absence of ectopic PP2Ac, U937 cells, HIV-2 CAT reporter) is on record as 148 fold.

For `C[C@@](O)(/C=C/[C@H]1CC=CC(=O)O1)[C@@H](C[C@@H](O)\C=C/C=C\C=C\CO)OP(=O)(O)O` [fostreicin], in series [2] (10 μM FST), the “cellular viability compared to no treatment” value was > 100%. Also, the “cellular viability compared with PMA alone” value in series [2] (10 μM FST and PMA) stood at 76.3%. The “effect of treatment on cellular viability” value in series [2] (treatment with FST) is listed as “minimally affected”. Besides, in series [3] (10 μM, PMA 32 nM), the “reversal of PMA stimulation of HIV-1 replication” value is recorded as “totally reversed PMA stimulation of HIV-1 replication”. Moreover, the “inhibition of PMA-stimulated HIV-1 replication” value in series [3] (PMA 32 nM) is reported as “inhibit PMA-stimulated HIV-1 replication”.

Regarding `C=C1[C@@H](O)[C@@H]2O[C@]3(CC[C@H](/C=C/[C@@H](C)[C@@H]4CC(C)=C[C@@]5(O[C@H](C[C@@](C)(O)C(=O)O)CC[C@H]5O)O4)O3)CC[C@H]2O[C@@H]1[C@@H](O)C[C@H](C)[C@H]1O[C@@]2(CCCCO2)CC[C@H]1C` [okadaic acid], the “effect on synergy between PP2Ac and TPA in activating HIV-2 enhancer CAT reporter” value in series [1] (5 μg pCMV5 PP2Ac plus TPA, OKA 50-400 nM) is listed as “significantly reduced in a dose dependent manner”. The “effect of OKA on CAT activity of TPA-treated cells” value in series [1] (OKA 50-400 nM pretreatment 30 min prior to TPA, U937 cells) is reported as “decrease in CAT activity”. The “maximal increase in CAT reporter activity” value in series [1] (OKA alone for 18 hrs, maximal activity at 200 nM, U937 cells) amounted to 150 fold. Besides, the “inhibition of PMA-stimulated HIV-1 replication” value in series [3] (PMA 32 nM) is “inhibit PMA-stimulated HIV-1 replication”. Moreover, the “concentration dependence of inhibition of replication” value in series [3] (PMA 32 nM, from 50 nM to 200 nM) is listed as “inhibited replication in a concentration dependent manner”. The “inhibition of HIV-1 replication in the absence of PMA” value in series [3] (no PMA) was “no inhibition”. Further, in series [4], the “effect on the HIV-1 LTR” value is given as “activate the HIV-1 LTR”.
